Experimental findings from patent publication US4929620A, “5-pyrimidinyl-3,5-dihydroxy-6-heptenoic acid compounds useful as inhibitors of cholesterol biosynthesis” (Warner-Lambert Company, priority 1989, dated 1990) are described below.

The subject of this test is sterol synthesis. The experiment in a line: CSI screen: incorporation of 14C-acetate into nonsaponifiable lipid by rat liver homogenate (inhibition of cholesterol biosynthesis). The conditions noted are these: 50% inhibition of sterol synthesis over a one-hour period, livers of rats fed 5% cholestyramine chow for four days. Format: biochemical. The method, then:
The ability of compounds of the present invention to inhibit the biosynthesis of cholesterol was measured by a method (designated CSI screen) which utilizes the procedure described by R. E. Dugan et al, Archiv. Biochem. Biophys., (1972), 152, 21-27. In this method, the level of HMG-CoA enzyme activity in standard laboratory rats is increased by feeding the rats a chow diet containing 5% cholestyramine for four days, after which the rats are sacrificed.
The rat livers are homogenized, and the incorporation of 14C-acetate into nonsaponifiable lipid by the rat liver homogenate is measured. The micromolar concentration of compound required for 50% inhibition of sterol synthesis over a one-hour period is measured, and expressed as an IC50 value.
The activities of several representative examples of compounds in accordance with the present invention appear in Table 1.

For `Cc1cc(C)cc(-c2nc(-c3ccccc3)nc(C)c2/C=C/[C@@H]2C[C@@H](O)CC(=O)O2)c1` (relative stereo) [[4α, 6β(E)]-6-[2-[4-(3,5-Dimethylphenyl)-6-methyl-2-phenyl-5-pyrimidinyl]ethenyl]-tetrahydro-4-hydroxy-2H-pyran-2-one], the IC50 came out at 220 nM.

For the compound `Cc1nc(C)c(/C=C/[C@@H]2C[C@@H](O)CC(=O)O2)c(-c2ccc(F)cc2)n1` (relative stereo) [[4α, 6β(E)]-6-[2-[4-(4-Fluorophenyl)-2,6-dimethyl-5-pyrimidinyl]ethenyl]tetrahydro-4-hydroxy-2H-pyran-2-one], the half-maximal inhibitory concentration (IC50) is 130 nM. Next, `Cc1nc(-c2ccccc2)nc(-c2ccc(F)cc2)c1/C=C/[C@@H]1C[C@@H](O)CC(=O)O1` (relative stereo) [[4α, 6β(E)]-6-[2-[4-(4-Fluorophenyl)-6-methyl-2-phenyl-5-pyrimidinyl]ethenyl]tetrahydro-4-hydroxy-2H-pyran-2-one]: 150 nM.
